Measured values taken from patent publication US9475841B2, “Melanoma antigen peptide and uses thereof” (INSERM (INSTITUT NATIONAL DE LA SANTE ET DE LA RECHERCHE …, priority 2012, dated 2016).

What was measured:
Experiment in all cases: Cytokine profile of CD4 T cell clone stimulated with cognate peptide (intracellular staining)
Format in all cases: cell-based, human
Settings in all cases: cognate peptide 10 μM, 5 hours
[1] = tested on: CD4 T cell clone 9C12-DQβ*0202
Experimental: (§1) Lymphocytes were stimulated for 5 hours in the presence of brefeldin A (10 μg/mL) either with peptide alone (10 μM) in an autopresentation assay or with B-EBV or HLA-class II expressing melanoma cells pulsed 2 hours with the cognate peptide, at a ratio 1:2. In some experiments, blocking mAb against HLA-DP (clone B7.21 from Dr Charron, UMR940, Paris), HLA-DQ (clone SPVL3, Beckman Coulter) or HLA-DR (clone L243, BD Biosciences) were added at a concentration of 12.5 μg/ml. Cells were then stained with APC-conjugated anti-CD4 mAb, fixed with 4% paraformaldehyde, labeled with PE-conjugated anti-cytokine mAb and analyzed by flow cytometry.
(§2) We also documented the T helper profile of each T cell clone, by stimulating the CD4 T cell clones with the cognate peptide, and analyzing cytokine production. All the clones expressed Th1 cytokines (TNFα, IFNγ, IL2 and GM-CSF). On the contrary, these clones differ in their expression of Th2 cytokines. Indeed, the two DQ2 restricted T cell clones (9C12 and 4E2) and the DR1 restricted one (5F9) also strongly express two Th2 cytokines (IL4, and IL13), whereas the DR11-restricted T cell clone only weakly expressed IL4 (Table IV). None of the CD4 T cell expresses IL10 or IL5 at a significant level.

[2] = tested on: CD4 T cell clone 1A5-DRβ1*1101
Experimental: as §1, §2

[3] = tested on: CD4 T cell clone 5F9-DRβ1*0101
Experimental: as §1, §2

“SCVGYPDEATSREQFLPSEG (SCVGYPDEATSREQFLPSEC) [MELOE-12-21]” was tested, and the “Cytokine profile: GM-CSF” value [1] was “GM-CSF^high”, the “Cytokine profile: IFN” value [1] was “IFN^high” and the “Cytokine profile: IL2” value [1] was “IL2^high”. For the same sequence, the “Cytokine profile: IL4” value [1] was “IL4^high”, the “Cytokine profile: IL5” value [1] was “IL5^high” and the “Cytokine profile: IL10” value [1] was “IL10^neg”. For the same sequence, the “Cytokine profile: IL13” value [1] was “IL13^high” and the “Cytokine profile: TNF” value [1] was “TNF^high”.

For TSREQFLPSEGAACPPWHPS [MELOE-111-30], the “Cytokine profile: GM-CSF” value [2] was “GM-CSF^high”, the “Cytokine profile: IFN” value [2] was “IFN^high” and the “Cytokine profile: IL2” value [2] was “IL2^high”. For the same sequence, the “Cytokine profile: IL4” value [2] was “IL4^low”, the “Cytokine profile: IL5” value [2] was “IL5^neg” and the “Cytokine profile: IL10” value [2] was “IL10^neg”. The “Cytokine profile: IL13” value [2] was “IL13^neg”, the “Cytokine profile: TNF” value [2] was “TNF^high” and the “Cytokine profile: GM-CSF” value [3] was “GM-CSF^high”. The “Cytokine profile: IFN” value [3] was “IFN^high”, the “Cytokine profile: IL2” value [3] was “IL2^low” and the “Cytokine profile: IL4” value [3] was “IL4^high”. The “Cytokine profile: IL5” value [3] was “IL5^neg”, the “Cytokine profile: IL10” value [3] was “IL10^neg” and the “Cytokine profile: IL13” value [3] was “IL13^high”. The “Cytokine profile: TNF” value [3] was “TNF^high”.
